Measured values: patent US5494895A, “Scorpion peptide margatoxin with immunosuppressant activity” (Merck & Co., Inc., priority 1993, dated 1996)
Peptide text beside a SMILES is read from it.

Assays:
[1] = target: T1, lymphocyte Kv 1.3 current (Homo sapiens, UniProt P22001); experiment: Whole cell patch clamp of human peripheral T-lymphocytes; format: cell-based
T1 construct: endogenous in cells; host or cells: purified human peripheral blood T lymphocytes
Description: Ionic currents were recorded from human peripheral T-lymphocytes using the whole cell patch clamp technique described in Cahalan, M. and Neher, E., Meth. Enzymol. 207, 3, 1992. Purified human T cells were obtained as described in Leonard et al., Proc. Natl. Acad. Sci. U.S.A., 89, 10094, 1992, and recordings were carried out in a bath solution consisting of ^125 mM NaCl, 2.5 mM KCl, 1.0 mM CaCl2, 2.0 mM MgCl2, 10 mM HEPES (potassium salt), 10 mM glucose, 5 mM Na-pyruvate, and 0.05% BSA. The pH was adjusted to 7.2, and experiments were performed at room temperature (19°-22° C.). The intracellular (pipette) solution contained 140 mM K-glutamate, 1 mM MgCl2, 10 mM HEPES (potassium salt), and 0.1 mM EGTA. The pH was adjusted to 7.2. Patch pipettes were fabricated from DAGAN (Minneapolis, Minn.) LG-16 glass and had resistances of 2 to 8M.OMEGA.. Currents were measured using a DAGAN model 3900 patch clamp. Delivery of command voltages, data acquisition, and post-acquisition analysis were aided by a microcomputer running the Pclamp program suite (AXON INSTRUMENTS, Foster City, Calif.).
Methods for oocyte isolation and micro-injection were previously described in Goldin, Meth. Cell Biol, 36, 487, 1991, and Swanson and Folander, Meth. Enzymol., 207, 310, 1992. Currents expressed in oocytes were measured using a DAGAN model CA-1 two-electrode voltage clamp. Delivery of command voltages, data acquisition and post-acquisition analysis were aided by a microcomputer running the Pclamp program suite. The oocyte bathing solution consisted of 96 mM NaCl, 2.5 mM KCl, 1 mM MgCl2, 1.8 mM CaCl2, 10 mM HEPES, and 0.05% BSA. The pH was 7.2. All recordings were obtained at room temperature (19°-22° C.). The intracellular microelectrodes were fabricated from DAGAN LE-16 glass in a two-stage pull to a final resistance of 0.6 to 2M.OMEGA. and filled with 3M KCl. For both lymphocyte and oocyte experiments, peptides were diluted into the extracellular solution from 20 μM aqueous stock containing 100 mM NaCl. The presence of 0.05% BSA in the bath solution inhibited non-specific loss of dilute peptide toxins in the perfusion tubing.
Both native and recombinant MgTX were tested for their ability to block voltage gated K^+ channels. […] There was insufficient native toxin to carry out selectivity studies, so those were conducted using the recombinant material exclusively. […] The apparent IC50 for inhibition of the lymphocyte Kv 1.3 current is between 20 to 100 pM. […] As reported previously, MgTX has no effect on three different ChTX-sensitive, Ca^2+ -activated K^+ channels of lymphocytes, even at 100 nM (Leonard et al., Proc. Natl. Acad. Sci. U.S.A. 89, 10094, 1992).

[2] = target: T2, Kv 1.3 in plasma membranes from Jurkat cells (Homo sapiens, UniProt P22001); experiment: [125I]ChTX binding to plasma membranes from Jurkat cells
T2 construct: plasma membranes prepared from Jurkat cells, a human T-cell leukemia line; endogenous in cells; host or cells: Jurkat cells (plasma membranes)
Description: In addition to being tested for competition for [^125 I]ChTX binding to rat brain and bovine aortic smooth muscle, MgTX was evaluated for its effects on [^125 I]ChTX binding to human T lymphocytes and to plasma membranes prepared from Jurkat cells, a human T-cell leukemia line. MgTX competition for [^125 I]ChTX binding to human T cells was performed as described by Lin, et al., J. Exp. Med. 177, 637-645, 1993. Binding experiments using monocyte-depleted, E-rosetted human T cells were carried out in isotonic sucrose with 5 mM KCl, 5 mM NaCl, 6 mM glucose and 10 mM HEPES, pH 8.0 until equilibrium was achieved. The procedure for binding to plasma membranes from Jurkat Cells is similar except that the binding solution was 3 mM KCl, 7 mM NaCl, 10 mM HEPES, pH 8.0. Free ligand was removed from bound by filtration through Whatman GF/C glass fiber filters (pretreated with 0.5% polyethylenimine). […] Hill coefficients were 2 in both cases.

Maxi-K channel = target: T3, Maxi-K channel (Bos taurus, UniProt Q28204); experiment: [125I]ChTX binding to bovine aortic smooth muscle sarcolemmal membranes; conditions: concentrations up to 10 nM
T3 construct: from tissue; host or cells: bovine aortic smooth muscle sarcolemmal membranes
Description: (§1) The potency of MgTX as an inhibitor of [^125 I]ChTX binding to Kv 1.3 was evaluated. The binding of [^125 I]ChTX to either rat brain synaptic plasma membrane vesicles (Kv 1.3 channel; Vazquez et al., J. Biol. Chem. 265, 15564, 1990) or bovine aortic smooth muscle sarcolemmal membranes (Maxi-K channel; Vazquez et al., J. Biol. Chem. 264, 20402, 1989) was determined as described. Briefly, membrane vesicles were incubated with [^125 I]ChTX in the presence or absence of other added agents, until equilibrium was achieved. Separation of bound from free ligand was accomplished by filtration through GF/C glass fiber filters (WHATMAN) that had been presoaked in 0.5% polyethyleneimine. Nonspecific binding was determined in the presence of 10 nM unlabeled ChTX. Data from saturation experiments were analyzed in a Scatchard representation to determine Kd and Bmax values. Triplicate samples were obtained for each experimental point and the data were averaged. The standard deviation of the mean was typically less than 2%. […] As an indication of selectivity, MgTX had no effect on [^125 I]ChTX binding to the Maxi-K channel in smooth muscle membranes at concentrations up to 10 nM.

Kv 1.3 = target: T4, Kv 1.3 (Rattus norvegicus, UniProt P15384); experiment: [125I]ChTX binding to rat brain synaptic plasma membrane vesicles; conditions: low ionic strength (50 mM NaCl, 20 mM Tris-HCl, pH 7.4)
T4 construct: from tissue; host or cells: rat brain synaptic plasma membrane vesicles
Description: as §1

T1 sequence (P22001 whole entry): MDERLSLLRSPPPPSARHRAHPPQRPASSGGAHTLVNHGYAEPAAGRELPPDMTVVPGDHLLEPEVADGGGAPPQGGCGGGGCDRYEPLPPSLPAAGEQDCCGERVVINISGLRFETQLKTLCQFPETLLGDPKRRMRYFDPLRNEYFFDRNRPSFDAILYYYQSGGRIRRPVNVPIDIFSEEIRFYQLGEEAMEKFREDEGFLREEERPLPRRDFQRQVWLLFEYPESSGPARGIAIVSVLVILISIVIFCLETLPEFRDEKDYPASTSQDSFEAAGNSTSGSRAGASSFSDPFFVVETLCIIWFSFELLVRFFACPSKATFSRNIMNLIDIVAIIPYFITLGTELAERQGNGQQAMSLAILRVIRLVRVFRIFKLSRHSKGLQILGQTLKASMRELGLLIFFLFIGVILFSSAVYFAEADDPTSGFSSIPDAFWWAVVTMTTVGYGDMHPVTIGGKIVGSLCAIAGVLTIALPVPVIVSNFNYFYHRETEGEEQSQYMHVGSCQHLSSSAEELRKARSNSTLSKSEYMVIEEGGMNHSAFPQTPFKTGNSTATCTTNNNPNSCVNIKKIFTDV
T4 sequence (P15384 whole entry): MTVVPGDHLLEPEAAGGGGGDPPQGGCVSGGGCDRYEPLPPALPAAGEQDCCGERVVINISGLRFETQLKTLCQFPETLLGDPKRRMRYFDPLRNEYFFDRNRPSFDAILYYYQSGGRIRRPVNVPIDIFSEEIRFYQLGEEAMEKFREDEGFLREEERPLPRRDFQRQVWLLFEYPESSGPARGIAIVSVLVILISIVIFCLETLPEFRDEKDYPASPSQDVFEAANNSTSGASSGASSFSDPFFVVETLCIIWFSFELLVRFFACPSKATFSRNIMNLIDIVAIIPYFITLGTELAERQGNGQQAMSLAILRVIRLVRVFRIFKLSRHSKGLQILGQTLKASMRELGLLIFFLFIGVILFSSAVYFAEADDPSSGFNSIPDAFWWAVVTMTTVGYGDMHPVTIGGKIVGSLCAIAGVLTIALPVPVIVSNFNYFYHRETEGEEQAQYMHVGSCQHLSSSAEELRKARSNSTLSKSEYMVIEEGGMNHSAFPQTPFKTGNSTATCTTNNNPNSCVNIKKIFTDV
T2 sequence (P22001 whole entry): as the sequence (P22001 whole entry) above
T3 sequence (Q28204 whole entry): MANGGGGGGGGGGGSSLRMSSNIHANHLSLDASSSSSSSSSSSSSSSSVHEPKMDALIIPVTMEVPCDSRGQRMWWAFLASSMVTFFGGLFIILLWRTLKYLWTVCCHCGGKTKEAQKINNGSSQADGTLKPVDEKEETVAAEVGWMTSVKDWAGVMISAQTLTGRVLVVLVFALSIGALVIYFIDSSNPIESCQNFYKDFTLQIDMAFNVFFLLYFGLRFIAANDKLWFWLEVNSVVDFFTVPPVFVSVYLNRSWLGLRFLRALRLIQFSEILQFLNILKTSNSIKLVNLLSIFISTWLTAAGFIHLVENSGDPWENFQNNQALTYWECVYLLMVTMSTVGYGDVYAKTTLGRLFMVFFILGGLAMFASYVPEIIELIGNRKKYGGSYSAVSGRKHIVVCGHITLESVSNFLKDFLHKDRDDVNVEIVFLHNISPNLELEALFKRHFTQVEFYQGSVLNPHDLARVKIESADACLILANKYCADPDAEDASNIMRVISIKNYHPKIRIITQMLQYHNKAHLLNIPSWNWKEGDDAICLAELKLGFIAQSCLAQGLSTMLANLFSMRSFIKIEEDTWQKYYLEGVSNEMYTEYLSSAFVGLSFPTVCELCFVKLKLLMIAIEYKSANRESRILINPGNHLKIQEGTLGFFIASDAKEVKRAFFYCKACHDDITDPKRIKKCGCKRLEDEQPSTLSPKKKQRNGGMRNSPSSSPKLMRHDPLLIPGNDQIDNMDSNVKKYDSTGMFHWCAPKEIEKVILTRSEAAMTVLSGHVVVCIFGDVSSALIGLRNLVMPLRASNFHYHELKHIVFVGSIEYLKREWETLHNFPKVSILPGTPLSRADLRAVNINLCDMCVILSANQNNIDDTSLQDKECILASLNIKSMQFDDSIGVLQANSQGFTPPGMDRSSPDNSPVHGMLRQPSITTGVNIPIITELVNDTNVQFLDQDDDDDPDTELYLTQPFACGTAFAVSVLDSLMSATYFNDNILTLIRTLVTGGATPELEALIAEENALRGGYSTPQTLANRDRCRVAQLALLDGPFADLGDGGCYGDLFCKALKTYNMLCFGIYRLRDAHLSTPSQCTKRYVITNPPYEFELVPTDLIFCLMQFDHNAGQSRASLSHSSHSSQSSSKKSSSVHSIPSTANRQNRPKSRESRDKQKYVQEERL
T3 sequence (Q28067 whole entry partner): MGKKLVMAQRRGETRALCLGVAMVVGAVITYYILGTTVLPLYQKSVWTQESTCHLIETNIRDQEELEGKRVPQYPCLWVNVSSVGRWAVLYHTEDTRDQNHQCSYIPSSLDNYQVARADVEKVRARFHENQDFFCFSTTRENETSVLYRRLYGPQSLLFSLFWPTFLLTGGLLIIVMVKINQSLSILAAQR

## CC[C@H](C)[C@H](NC(=O)[C@@H](N)[C@@H](C)O)C(=O)N[C@H](C(=O)N[C@@H](CC(N)=O)C(=O)N[C@H](C(=O)N[C@@H](CCCCN)C(=O)N[C@H]1CSSC[C@@H]2NC(=O)[C@H](CCCCN)NC(=O)[C@H](C)NC(=O)CNC(=O)[C@H](C)NC(=O)[C@H](CO)NC(=O)[C@H](CCC(N)=O)NC(=O)CNC(=O)[C@H](Cc3ccccc3)NC(=O)[C@H](CCC(N)=O)NC(=O)[C@H](C)NC(=O)[C@H](CCCCN)NC(=O)[C@@H]3CSSC[C@@H](C(=O)N[C@@H](Cc4ccc(O)cc4)C(=O)N4CCC[C@H]4C(=O)N[C@@H](Cc4c[nH]cn4)C(=O)O)NC(=O)[C@H](CCCCN)NC(=O)[C@H](CSSC[C@H](NC(=O)[C@H](CCC(N)=O)NC(=O)[C@H](CCCCN)NC(=O)[C@@H]4CCCN4C(=O)[C@H](CO)NC(=O)[C@H]([C@@H](C)O)NC1=O)C(=O)N[C@@H](CC(C)C)C(=O)N1CCC[C@H]1C(=O)N1CCC[C@H]1C(=O)N3)NC(=O)[C@H](CCCCN)NC(=O)CNC(=O)[C@H](CC(N)=O)NC(=O)[C@H](CCSC)NC2=O)C(C)C)[C@@H](C)CC [MgTX, Margatoxin] (HELM PEPTIDE1{T.I.I.N.V.K.C.T.S.P.K.Q.C.L.P.P.C.K.A.Q.F.G.Q.S.A.G.A.K.C.M.N.G.K.C.K.C.Y.P.H}$PEPTIDE1,PEPTIDE1,7:R3-29:R3|PEPTIDE1,PEPTIDE1,13:R3-34:R3|PEPTIDE1,PEPTIDE1,17:R3-36:R3$$$V2.0; N-terminus and C-terminus assumed; bridges inferred)
[1]
  t1/2 of recovery from block following removal from the bath: > 20 min
[1]; at 1 nM
  inhibition of the voltage activated K+ channel from human lymphocytes: Complete inhibition
[1]; lymphocyte Kv 1.3 current
  potency relative to ChTX on the same preparation: five to ten-fold more potent
[1]; read-out: apparent IC50 for inhibition of the lymphocyte Kv 1.3 current
  IC50: 20 to 100 pM
[2]
  Hill coefficient: 2
[2]; pH 8.0, read-out: IC50 for inhibition of [125I]ChTX binding
  IC50: 2.7 pM
Maxi-K channel
  effect on [125I]ChTX binding to the Maxi-K channel in smooth muscle membranes: no effect
Kv 1.3
  Hill coefficient of inhibition of [125I]ChTX binding to brain membranes: 1.7
Kv 1.3; read-out: IC50 for inhibition of [125I]ChTX binding to brain membranes
  IC50: 36 pM
